Patent publication US20080194585A1, “Fungicidal Pyrazine Derivatives” (priority 2005, published 2008)
Marks after values point to notes of the source that are not given here.

How the values were obtained:
Plasmopara viticola = assay: Test D: grape downy mildew, spray after inoculation of grape seedlings; type: in vivo; settings: for Test D disease control rating: 100 = 100% disease control
From the text: Upon removal, disease ratings were made. […] A dash (-) indicates no test results.

Pythium aphanidermatum = assay: Test A: bluegrass pythium blight, preventive spray on bluegrass seedlings; settings: for Test A disease control rating: 100 = 100% disease control
Septoria tritici = assay: Test J: wheat leaf blotch, preventive spray on wheat seedlings; type: in vivo; settings: for Test J disease control rating: 100 = 100% disease control
From the text: A dash (-) indicates no test results.

Botrytis cinerea = assay: Test E: tomato botrytis, preventive spray on tomato seedlings; settings: for Test E disease control rating: 100 = 100% disease control
Phytophthora infestans = assay: whole plant or invertebrate; type: in vivo; settings: for Test F disease control rating: 100 = 100% disease control
[1] = test system: Colletotrichum orbiculare; assay: Test B: cucumber Colletotrichum anthracnose, preventive spray on cucumber seedlings; settings: for Test B disease control rating: 100 = 100% disease control
Rhizoctonia oryzae = assay: Test G: turf brown patch, preventive spray on creeping bent grass seedlings; settings: for Test G disease control rating: 100 = 100% disease control
Procedure: (the causal agent of turf brown patch) and incubated in a saturated atmosphere at 27° C. for 24 h, and then moved to a growth chamber at 27° C. for 5 days, after which disease ratings were made.

[2] = test system: Puccinia recondita f. sp. tritici; assay: Test K: wheat leaf rust, preventive spray on wheat seedlings; settings: for Test K disease control rating: 100 = 100% disease control
[3] = test system: Erysiphe graminis f. sp. tritici; assay: Test L: wheat powdery mildew, preventive spray on wheat seedlings; settings: for Test L disease control rating: 100 = 100% disease control
Septoria nodorum = assay: Test H: wheat glum blotch, preventive spray on wheat seedlings; settings: for Test H disease control rating: 100 = 100% disease control
Procedure: (the causal agent of wheat glum blotch) and incubated in a saturated atmosphere at 20° C. for 48 h, and then moved to a growth chamber at 22° C. for 5 days, after which disease ratings were made.

Sclerotinia sclerotiorum = assay: Test C: cucumber white mold, preventive spray on cucumber seedlings; settings: Sclerotinia sclerotiorum, in Cucumis sativus, 168 h, read-out: Test C disease control rating, 200 ppm
fusarium graminearium = assay: Test I: wheat head scab, preventive spray on wheat seedlings; settings: 100 = 100% disease control
Procedure: (the causal agent of wheat head scab) and incubated in a saturated atmosphere at 20° C. for 72 h, and then moved to a growth chamber at 22° C. for 5 days, after which disease ratings were made.

[4] = 40 ppm (marked *), 0 = no control
[5] = 200 ppm, 0 = no control relative to controls

Cc1ccc(-c2nc(Cl)c(-c3c(F)cccc3F)n(CC(C)C)c2=O)nc1 [Compound 209, 5-Chloro-6-(2,6-difluorophenyl)-1-(2-methylpropyl)-3-(5-methyl-2-pyridinyl)-2(1H)-pyrazinone]
pest or weed control at 200 ppm (Plasmopara viticola; Plasmopara viticola, 168 h, 200 ppm, read-out: Test D disease control rating): 8%
pest or weed control at 200 ppm (Pythium aphanidermatum; Pythium aphanidermatum, 120 h, read-out: Test A disease control rating): 56%
pest or weed control at 200 ppm (Septoria tritici; Zymoseptoria tritici, 528 h, 200 ppm, read-out: Test J disease control rating): 96%
pest or weed control at 200 ppm (Botrytis cinerea; Botrytis cinerea, in Solanum lycopersicum, topical, 72 h, read-out: Test E disease control rating): 99%
pest or weed control at 200 ppm (Phytophthora infestans; Phytophthora infestans, in Solanum lycopersicum, topical, 144 h, read-out: Test F disease control rating): 0%
pest or weed control at 200 ppm ([1]; Colletotrichum orbiculare, in Cucumis sativus, 144 h, read-out: Test B disease control rating, 200 ppm): 54%
pest or weed control at 200 ppm (Rhizoctonia oryzae; Waitea circinata, in Agrostis stolonifera, topical, 144 h, read-out: Test G disease control rating, 200 ppm): 34%
pest or weed control at 200 ppm ([2]; Puccinia recondita, in Triticum aestivum, 192 h, read-out: Test K disease control rating): 85%
pest or weed control at 200 ppm ([3]; Blumeria graminis, in Triticum aestivum, 168 h, read-out: Test L disease control rating, 200 ppm): 0%
pest or weed control at 200 ppm (Septoria nodorum; Parastagonospora nodorum, in Triticum aestivum, topical, 168 h, read-out: Test H disease control rating, 200 ppm): 0%
pest or weed control at 200 ppm (Sclerotinia sclerotiorum): 0%

Cc1ccn(-c2nc(Cl)c(-c3c(F)cccc3F)n(-c3cccc(F)c3F)c2=O)n1 [compound 381]
Test D disease control rating (Plasmopara viticola; [4]): 0* %
Test A disease control rating (Pythium aphanidermatum; [4]): 0* %
Test J disease control rating (Septoria tritici; [4]): 100* %
Test E disease control rating (Botrytis cinerea; [4]): 100* %
Test F disease control rating (Phytophthora infestans; [4]): 0* %
Test I disease control rating (fusarium graminearium; [4]): 0* %
Test B disease control rating [1, 4]: 78* %
Test G disease control rating (Rhizoctonia oryzae; [4]): 16* %
Test K disease control rating [2, 4]: 100* %
Test L disease control rating [3, 4]: 76* %
Test H disease control rating (Septoria nodorum; [4]): 99* %

O=c1c(-n2cccn2)nc(Cl)c(-c2c(F)cccc2F)n1-c1ccc(F)cc1 [compound 382]
Test D disease control rating (Plasmopara viticola; [4]): 0* %
Test A disease control rating (Pythium aphanidermatum; [4]): 0* %
Test J disease control rating (Septoria tritici; [4]): 100* %
Test E disease control rating (Botrytis cinerea; [4]): 99* %
Test F disease control rating (Phytophthora infestans; [4]): 0* %
Test I disease control rating (fusarium graminearium; [4]): 0* %
Test B disease control rating [1, 4]: 63* %
Test G disease control rating (Rhizoctonia oryzae; [5]): 16%
Test K disease control rating [2, 4]: 100* %
Test L disease control rating [3, 4]: 50* %
Test H disease control rating (Septoria nodorum; [4]): 99* %

Cc1ccn(-c2nc(Cl)c(-c3c(F)cccc3F)n(-c3ccc(F)cc3)c2=O)n1 [compound 383]
Test D disease control rating (Plasmopara viticola; [4]): 0* %
Test A disease control rating (Pythium aphanidermatum; [4]): 0* %
Test J disease control rating (Septoria tritici; [4]): 100* %
Test E disease control rating (Botrytis cinerea; [4]): 99* %
Test F disease control rating (Phytophthora infestans; [4]): 0* %
Test I disease control rating (fusarium graminearium; [4]): 0* %
Test B disease control rating [1, 4]: 63* %
Test G disease control rating (Rhizoctonia oryzae; [4]): 49* %
Test K disease control rating [2, 4]: 100* %
Test L disease control rating [3, 4]: 99* %
Test H disease control rating (Septoria nodorum; [4]): 100* %

O=c1c(-n2cccn2)nc(Cl)c(-c2c(F)cccc2F)n1-c1cc(F)cc(F)c1 [compound 384]
Test D disease control rating (Plasmopara viticola; [4]): 15* %
Test A disease control rating (Pythium aphanidermatum; [4]): 0* %
Test J disease control rating (Septoria tritici; [4]): 98* %
Test E disease control rating (Botrytis cinerea; [4]): 99* %
Test F disease control rating (Phytophthora infestans; [4]): 0* %
Test I disease control rating (fusarium graminearium; [4]): 0* %
Test B disease control rating [1, 4]: 90* %
Test G disease control rating (Rhizoctonia oryzae; [4]): 47* %
Test K disease control rating [2, 4]: 100* %
Test L disease control rating [3, 4]: 59* %
Test H disease control rating (Septoria nodorum; [4]): 99* %

Cc1ccn(-c2nc(Cl)c(-c3c(F)cccc3F)n(-c3cc(F)cc(F)c3)c2=O)n1 [compound 385]
Test D disease control rating (Plasmopara viticola; [4]): 0* %
Test A disease control rating (Pythium aphanidermatum; [4]): 0* %
Test J disease control rating (Septoria tritici; [4]): 100* %
Test E disease control rating (Botrytis cinerea; [4]): 99* %
Test F disease control rating (Phytophthora infestans; [4]): 0* %
Test I disease control rating (fusarium graminearium; [4]): 0* %
Test B disease control rating [1, 4]: 99* %
Test G disease control rating (Rhizoctonia oryzae; [4]): 78* %
Test K disease control rating [2, 4]: 100* %
Test L disease control rating [3, 4]: 89* %
Test H disease control rating (Septoria nodorum; [4]): 99* %

O=c1c(-n2cccn2)nc(Cl)c(-c2c(F)cccc2F)n1-c1ccc(F)cc1F [compound 386]
Test D disease control rating (Plasmopara viticola; [4]): 57* %
Test A disease control rating (Pythium aphanidermatum; [4]): 0* %
Test J disease control rating (Septoria tritici; [4]): 96* %
Test E disease control rating (Botrytis cinerea; [4]): 99* %
Test F disease control rating (Phytophthora infestans; [4]): 0* %
Test I disease control rating (fusarium graminearium; [4]): 0* %
Test B disease control rating [1, 4]: 87* %
Test G disease control rating (Rhizoctonia oryzae; [4]): 99* %
Test K disease control rating [2, 4]: 100* %
Test L disease control rating [3, 4]: 68* %
Test H disease control rating (Septoria nodorum; [4]): 100* %

Cc1ccn(-c2nc(Cl)c(-c3c(F)cccc3F)n(-c3ccc(F)cc3F)c2=O)n1 [compound 387]
Test D disease control rating (Plasmopara viticola; [4]): 0* %
Test A disease control rating (Pythium aphanidermatum; [4]): 0* %
Test J disease control rating (Septoria tritici; [4]): 99* %
Test E disease control rating (Botrytis cinerea; [4]): 99* %
Test F disease control rating (Phytophthora infestans; [4]): 0* %
Test I disease control rating (fusarium graminearium; [4]): 0* %
Test B disease control rating [1, 4]: 0* %
Test G disease control rating (Rhizoctonia oryzae; [4]): 60* %
Test K disease control rating [2, 4]: 100* %
Test L disease control rating [3, 4]: 0* %
Test H disease control rating (Septoria nodorum; [4]): 89* %

CC(C)Cn1c(-c2c(Cl)cc(C(F)(F)F)cc2Cl)c(Cl)nc(-n2cccn2)c1=O [compound 391]
Test D disease control rating (Plasmopara viticola; [4]): 0* %
Test A disease control rating (Pythium aphanidermatum; [4]): 0* %
Test J disease control rating (Septoria tritici; [4]): 33* %
Test E disease control rating (Botrytis cinerea; [4]): 0* %
Test F disease control rating (Phytophthora infestans; [4]): 0* %
Test I disease control rating (fusarium graminearium; [4]): 0* %
Test B disease control rating [1, 4]: 0* %
Test G disease control rating (Rhizoctonia oryzae; [4]): 0* %
Test K disease control rating [2, 4]: 88* %
Test L disease control rating [3, 4]: 0* %
Test H disease control rating (Septoria nodorum; [4]): 0* %

CCC(C)Cn1c(-c2c(F)cc(F)cc2F)c(Cl)nc(C(=O)NOC)c1=O (centres unmarked) [compound 417]
Test D disease control rating (Plasmopara viticola; [5]): 86%
Test A disease control rating (Pythium aphanidermatum; [5]): 0%
Test J disease control rating (Septoria tritici; [5]): 0%
Test E disease control rating (Botrytis cinerea; [4]): 99* %
Test F disease control rating (Phytophthora infestans; [5]): 93%
Test I disease control rating (fusarium graminearium; [5]): 0%
Test B disease control rating [1, 4]: 71* %
Test G disease control rating (Rhizoctonia oryzae; [4]): 0* %
Test K disease control rating [2, 4]: 100* %
Test L disease control rating [3, 5]: 76%
Test H disease control rating (Septoria nodorum; [4]): 60* %

CC(=O)Nc1nc(Cl)c(-c2c(F)cccc2F)n(CC(C)C)c1=O [compound 423]
Test D disease control rating (Plasmopara viticola; [5]): 0%
Test A disease control rating (Pythium aphanidermatum; [5]): 0%
Test J disease control rating (Septoria tritici; [4]): 46* %
Test E disease control rating (Botrytis cinerea; [5]): 100%
Test F disease control rating (Phytophthora infestans; [5]): 0%
Test I disease control rating (fusarium graminearium; [5]): 60%
Test B disease control rating [1, 5]: 0%
Test G disease control rating (Rhizoctonia oryzae; [5]): 95%
Test K disease control rating [2, 5]: 97%
Test L disease control rating [3, 5]: 97%
Test H disease control rating (Septoria nodorum; [5]): 0%

Cc1nc(C#N)c(=N)n(CC(C)C)c1-c1ccc(F)cc1F [compound 425]
Test D disease control rating (Plasmopara viticola; [5]): 0%
Test A disease control rating (Pythium aphanidermatum; [5]): 0%
Test J disease control rating (Septoria tritici; [5]): 3%
Test E disease control rating (Botrytis cinerea; [5]): 0%
Test F disease control rating (Phytophthora infestans; [5]): 16%
Test I disease control rating (fusarium graminearium; [5]): 0%
Test B disease control rating [1, 5]: 0%
Test G disease control rating (Rhizoctonia oryzae; [5]): 0%
Test K disease control rating [2, 5]: 0%
Test L disease control rating [3, 5]: 0%
Test H disease control rating (Septoria nodorum; [5]): 0%

Cc1nc(C(N)=O)c(=N)n(CC(C)C)c1-c1ccc(F)cc1F [compound 427]
Test D disease control rating (Plasmopara viticola; [5]): 0%
Test A disease control rating (Pythium aphanidermatum; [5]): 0%
Test J disease control rating (Septoria tritici; [5]): 0%
Test E disease control rating (Botrytis cinerea; [5]): 0%
Test F disease control rating (Phytophthora infestans; [5]): 0%
Test I disease control rating (fusarium graminearium; [5]): 0%
Test B disease control rating [1, 5]: 0%
Test G disease control rating (Rhizoctonia oryzae; [5]): 0%
Test K disease control rating [2, 5]: 0%
Test L disease control rating [3, 5]: 0%
Test H disease control rating (Septoria nodorum; [5]): 0%

CCC(C)Cn1c(-c2ccc(F)cc2F)c(C)nc(C(N)=O)c1=N (centres unmarked) [compound 428]
Test D disease control rating (Plasmopara viticola; [5]): 0%
Test A disease control rating (Pythium aphanidermatum; [5]): 0%
Test J disease control rating (Septoria tritici; [5]): 87%
Test E disease control rating (Botrytis cinerea; [5]): 49%
Test F disease control rating (Phytophthora infestans; [5]): 0%
Test I disease control rating (fusarium graminearium; [5]): 0%
Test B disease control rating [1, 5]: 0%
Test G disease control rating (Rhizoctonia oryzae; [5]): 0%
Test K disease control rating [2, 5]: 95%
Test L disease control rating [3, 5]: 0%
Test H disease control rating (Septoria nodorum; [5]): 0%

CC(C)Cn1c(-c2ccc(F)cc2F)c(F)nc(C(N)=O)c1=N [compound 429]
Test D disease control rating (Plasmopara viticola; [5]): 0%
Test A disease control rating (Pythium aphanidermatum; [5]): 88%
Test J disease control rating (Septoria tritici; [5]): 0%
Test E disease control rating (Botrytis cinerea; [5]): 0%
Test F disease control rating (Phytophthora infestans; [5]): 0%
Test I disease control rating (fusarium graminearium; [5]): 62%
Test B disease control rating [1, 5]: 0%
Test G disease control rating (Rhizoctonia oryzae; [5]): 0%
Test K disease control rating [2, 5]: 0%
Test L disease control rating [3, 5]: 0%
Test H disease control rating (Septoria nodorum; [5]): 0%

CC(=O)N=c1c(C#N)nc(C)c(-c2ccccc2)n1CC(C)C [compound 431]
Test D disease control rating (Plasmopara viticola; [5]): 46%
Test A disease control rating (Pythium aphanidermatum; [5]): 88%
Test J disease control rating (Septoria tritici; [5]): 0%
Test E disease control rating (Botrytis cinerea; [5]): 37%
Test F disease control rating (Phytophthora infestans; [5]): 0%
Test I disease control rating (fusarium graminearium; [5]): 28%
Test B disease control rating [1, 5]: 0%
Test G disease control rating (Rhizoctonia oryzae; [5]): 16%
Test K disease control rating [2, 5]: 32%
Test L disease control rating [3, 5]: 0%
Test H disease control rating (Septoria nodorum; [5]): 0%
